Source: the NIST ThermoML archive (doi:10.1007/s10765-010-0766-0)
± gives the expanded uncertainty stated by the source.

Assay: molar heat capacity at constant volume; wn = mass fraction of the nth substance listed
Conditions: Liquid, Vacuum adiabatic calorimetry, w2 = 0.4981

FC(F)C(F)(F)F [pentafluoroethane] + FCF
Conditions | molar heat capacity at constant volume [J/K/mol]
376.15 K, 13702 kPa | 80.76 ± 3.6
376.15 K, 13709 kPa | 82.87 ± 3.7
376.15 K, 23359 kPa | 71.6 ± 3.3
376.15 K, 23375 kPa | 71.02 ± 3.2
376.15 K, 23406 kPa | 70.08 ± 3.2
377.15 K, 13950 kPa | 82.14 ± 3.7
377.15 K, 13957 kPa | 81.34 ± 3.6
377.15 K, 23734 kPa | 71.24 ± 3.2
377.15 K, 23750 kPa | 71.6 ± 3.2
377.15 K, 23780 kPa | 70.88 ± 3.2
378.15 K, 14198 kPa | 80.25 ± 3.6
378.15 K, 14205 kPa | 80.18 ± 3.6
378.15 K, 24109 kPa | 72.04 ± 3.3
378.15 K, 24125 kPa | 71.82 ± 3.3
378.15 K, 24155 kPa | 70.51 ± 3.2
379.15 K, 14447 kPa | 81.2 ± 3.6
379.15 K, 14454 kPa | 81.85 ± 3.7
379.15 K, 24484 kPa | 72.04 ± 3.3
379.15 K, 24500 kPa | 70.95 ± 3.2
379.15 K, 24531 kPa | 70.22 ± 3.2
380.15 K, 14696 kPa | 80.47 ± 3.6
380.15 K, 14702 kPa | 80.84 ± 3.6
380.15 K, 24858 kPa | 72.11 ± 3.3
380.15 K, 24875 kPa | 71.6 ± 3.2
380.15 K, 24906 kPa | 70.88 ± 3.2
381.15 K, 14944 kPa | 80.54 ± 3.6
381.15 K, 14951 kPa | 81.93 ± 3.7
381.15 K, 25233 kPa | 72.33 ± 3.3
381.15 K, 25250 kPa | 71.6 ± 3.3
381.15 K, 25282 kPa | 68.91 ± 3.1
382.15 K, 15194 kPa | 81.2 ± 3.6
382.15 K, 15200 kPa | 81.2 ± 3.6
382.15 K, 25608 kPa | 70.51 ± 3.2
382.15 K, 25625 kPa | 71.75 ± 3.3
382.15 K, 25657 kPa | 69.64 ± 3.1
383.15 K, 15443 kPa | 80.18 ± 3.6
383.15 K, 15449 kPa | 81.13 ± 3.6
383.15 K, 25983 kPa | 72.33 ± 3.3
383.15 K, 26000 kPa | 71.75 ± 3.3
383.15 K, 26033 kPa | 69.93 ± 3.2
384.15 K, 15692 kPa | 82.29 ± 3.7
384.15 K, 15699 kPa | 80.62 ± 3.6
384.15 K, 26358 kPa | 72.69 ± 3.3
384.15 K, 26375 kPa | 72.84 ± 3.3
384.15 K, 26408 kPa | 70 ± 3.2
385.15 K, 15942 kPa | 79.6 ± 3.6
385.15 K, 15948 kPa | 82.58 ± 3.7
385.15 K, 26733 kPa | 72.55 ± 3.3
385.15 K, 26750 kPa | 72.4 ± 3.3
385.15 K, 26784 kPa | 69.28 ± 3.2
386.15 K, 16192 kPa | 81.2 ± 3.6
386.15 K, 16198 kPa | 83.09 ± 3.8
386.15 K, 27107 kPa | 72.4 ± 3.3
386.15 K, 27125 kPa | 72.77 ± 3.4
386.15 K, 27159 kPa | 68.48 ± 3.1
387.15 K, 16442 kPa | 79.31 ± 3.6
387.15 K, 16448 kPa | 81.34 ± 3.6
387.15 K, 27482 kPa | 73.57 ± 3.3
387.15 K, 27500 kPa | 73.57 ± 3.4
387.15 K, 27533 kPa | 70.66 ± 3.2
388.15 K, 16692 kPa | 80.62 ± 3.6
388.15 K, 16698 kPa | 82.51 ± 3.7
388.15 K, 27856 kPa | 73.71 ± 3.4
388.15 K, 27874 kPa | 73.71 ± 3.5
388.15 K, 27907 kPa | 69.06 ± 3.2
389.15 K, 16942 kPa | 80.76 ± 3.6
389.15 K, 16948 kPa | 82.07 ± 3.7
389.15 K, 28231 kPa | 74.08 ± 3.4
389.15 K, 28249 kPa | 73.86 ± 3.4
389.15 K, 28282 kPa | 70.22 ± 3.2
390.15 K, 17192 kPa | 80.84 ± 3.6
390.15 K, 17198 kPa | 83.74 ± 3.8
390.15 K, 28605 kPa | 74.08 ± 3.4
390.15 K, 28624 kPa | 74.73 ± 3.6
390.15 K, 28657 kPa | 70.3 ± 3.2
391.15 K, 17442 kPa | 81.05 ± 3.6
391.15 K, 17448 kPa | 83.67 ± 3.8
391.15 K, 28979 kPa | 73.78 ± 3.3
391.15 K, 28998 kPa | 72.77 ± 3.3
391.15 K, 29032 kPa | 70.44 ± 3.2
392.15 K, 17692 kPa | 81.05 ± 3.6
392.15 K, 17698 kPa | 81.34 ± 3.6
392.15 K, 29354 kPa | 72.77 ± 3.3
392.15 K, 29373 kPa | 71.31 ± 3.3
392.15 K, 29407 kPa | 68.84 ± 3.1
393.15 K, 17943 kPa | 79.38 ± 3.6
393.15 K, 17949 kPa | 81.27 ± 3.6
393.15 K, 29728 kPa | 74 ± 3.3
393.15 K, 29782 kPa | 72.19 ± 3.3
394.15 K, 18193 kPa | 82 ± 3.7
394.15 K, 18199 kPa | 80.84 ± 3.6
395.15 K, 18444 kPa | 80.18 ± 3.6
395.15 K, 18450 kPa | 83.89 ± 3.8
396.15 K, 18701 kPa | 80.62 ± 3.6
397.15 K, 18951 kPa | 82.36 ± 3.7
